Measurements as given in ChEMBL document CHEMBL5126529, “Drug discovery of histone lysine demethylases (KDMs) inhibitors (progress from 2018 to present)” (Eur J Med Chem, 2022).

What was measured:
[1] = target: Lysine-specific demethylase 6B (Homo sapiens, UniProt O15054); experiment: Binding affinity to KDM6B (unknown origin) assessed as inhibition constant
[2] = target: Probable JmjC domain-containing histone demethylation protein 2C (Homo sapiens, UniProt Q15652); experiment: Binding affinity to CM7 sensor chip immobilized partial-length JMJD1C (2274 to 2498 residues) (unknown origin) expressed in Escherichia coli assessed as dissociation constant incubated for 60 secs by SPR analysis
Probable JmjC domain-containing histone demethylation protein 2C, sequence (Q15652 whole entry, the tested form may be a part): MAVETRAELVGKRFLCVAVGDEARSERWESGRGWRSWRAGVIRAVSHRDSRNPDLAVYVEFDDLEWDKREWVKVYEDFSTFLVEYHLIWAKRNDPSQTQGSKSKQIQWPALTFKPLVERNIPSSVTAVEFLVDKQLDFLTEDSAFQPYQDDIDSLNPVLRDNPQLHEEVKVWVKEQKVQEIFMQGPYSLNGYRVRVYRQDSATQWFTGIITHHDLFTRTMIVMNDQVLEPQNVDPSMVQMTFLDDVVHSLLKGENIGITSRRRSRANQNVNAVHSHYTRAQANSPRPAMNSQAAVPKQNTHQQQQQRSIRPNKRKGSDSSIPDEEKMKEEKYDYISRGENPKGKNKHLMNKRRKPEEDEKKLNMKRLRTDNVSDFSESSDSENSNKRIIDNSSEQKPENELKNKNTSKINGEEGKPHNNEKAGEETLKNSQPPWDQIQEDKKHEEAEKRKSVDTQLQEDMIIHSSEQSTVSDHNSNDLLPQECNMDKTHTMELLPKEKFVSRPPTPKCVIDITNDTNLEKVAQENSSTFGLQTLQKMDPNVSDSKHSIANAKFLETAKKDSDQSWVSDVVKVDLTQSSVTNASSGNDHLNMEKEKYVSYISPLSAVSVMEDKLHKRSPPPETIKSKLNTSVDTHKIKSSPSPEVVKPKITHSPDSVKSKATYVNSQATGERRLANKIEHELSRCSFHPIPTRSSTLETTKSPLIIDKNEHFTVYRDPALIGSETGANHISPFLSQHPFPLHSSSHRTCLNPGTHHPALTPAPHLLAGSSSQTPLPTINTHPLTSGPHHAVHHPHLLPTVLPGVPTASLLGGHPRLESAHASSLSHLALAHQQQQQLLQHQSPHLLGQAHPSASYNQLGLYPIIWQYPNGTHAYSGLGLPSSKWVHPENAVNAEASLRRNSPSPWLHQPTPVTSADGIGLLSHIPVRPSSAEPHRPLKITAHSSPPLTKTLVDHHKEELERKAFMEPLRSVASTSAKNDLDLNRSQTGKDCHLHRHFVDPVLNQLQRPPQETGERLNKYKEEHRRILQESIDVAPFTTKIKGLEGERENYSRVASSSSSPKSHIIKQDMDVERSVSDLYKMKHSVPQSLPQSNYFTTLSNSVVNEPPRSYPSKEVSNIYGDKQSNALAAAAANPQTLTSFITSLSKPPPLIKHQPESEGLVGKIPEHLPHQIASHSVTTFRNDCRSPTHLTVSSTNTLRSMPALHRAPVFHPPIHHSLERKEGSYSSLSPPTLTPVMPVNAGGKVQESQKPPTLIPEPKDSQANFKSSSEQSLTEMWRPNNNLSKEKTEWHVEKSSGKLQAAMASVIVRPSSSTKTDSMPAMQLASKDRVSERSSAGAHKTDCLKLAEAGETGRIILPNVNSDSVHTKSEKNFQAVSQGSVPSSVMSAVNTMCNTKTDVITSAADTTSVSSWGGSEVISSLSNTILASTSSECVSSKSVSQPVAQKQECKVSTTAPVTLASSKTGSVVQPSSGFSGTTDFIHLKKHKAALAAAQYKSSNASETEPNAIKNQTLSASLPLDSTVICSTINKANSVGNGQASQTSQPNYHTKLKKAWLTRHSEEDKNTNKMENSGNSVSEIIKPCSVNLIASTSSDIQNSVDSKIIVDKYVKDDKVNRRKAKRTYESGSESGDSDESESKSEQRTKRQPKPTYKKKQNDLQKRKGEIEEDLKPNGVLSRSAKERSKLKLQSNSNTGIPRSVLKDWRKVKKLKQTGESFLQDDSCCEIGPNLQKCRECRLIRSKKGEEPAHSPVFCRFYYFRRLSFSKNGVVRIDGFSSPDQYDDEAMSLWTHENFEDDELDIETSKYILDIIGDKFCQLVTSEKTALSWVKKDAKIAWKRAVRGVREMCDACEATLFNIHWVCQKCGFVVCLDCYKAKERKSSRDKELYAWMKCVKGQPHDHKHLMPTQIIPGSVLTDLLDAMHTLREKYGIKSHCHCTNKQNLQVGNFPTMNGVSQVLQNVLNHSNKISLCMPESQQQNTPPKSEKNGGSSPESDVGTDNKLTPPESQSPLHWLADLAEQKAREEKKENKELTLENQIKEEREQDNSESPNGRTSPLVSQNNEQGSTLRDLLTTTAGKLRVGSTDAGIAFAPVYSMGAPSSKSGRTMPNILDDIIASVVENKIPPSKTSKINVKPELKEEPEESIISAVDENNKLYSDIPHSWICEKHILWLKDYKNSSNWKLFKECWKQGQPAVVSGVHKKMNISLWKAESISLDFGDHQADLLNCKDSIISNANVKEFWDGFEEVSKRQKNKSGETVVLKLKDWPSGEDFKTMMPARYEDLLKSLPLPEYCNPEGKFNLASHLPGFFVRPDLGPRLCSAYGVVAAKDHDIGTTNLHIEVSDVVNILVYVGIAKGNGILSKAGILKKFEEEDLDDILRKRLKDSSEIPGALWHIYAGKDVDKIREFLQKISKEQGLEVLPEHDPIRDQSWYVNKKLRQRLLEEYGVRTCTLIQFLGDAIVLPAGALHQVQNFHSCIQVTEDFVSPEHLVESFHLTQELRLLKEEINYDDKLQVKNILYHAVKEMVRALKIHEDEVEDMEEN

[3] = target: Lysine-specific demethylase 3B (Homo sapiens, UniProt Q7LBC6); experiment: Binding affinity to CM7 sensor chip immobilized full-length KDM3B (unknown origin) expressed in Sf9 insect cells assessed as dissociation constant incubated for 60 secs by SPR analysis
[4] = target: Lysine-specific demethylase 5C (Homo sapiens, UniProt P41229); experiment: Inhibition of N-terminal FLAG/His-tagged full-length human KDM5C (2 to 1560 residues) expressed in baculovirus infected Sf9 insect cells using peptide substrate at 10 uM incubated for 2 hrs by Alpha Screen assay relative to control
Lysine-specific demethylase 5C, sequence (P41229 whole entry, the tested form may be a part): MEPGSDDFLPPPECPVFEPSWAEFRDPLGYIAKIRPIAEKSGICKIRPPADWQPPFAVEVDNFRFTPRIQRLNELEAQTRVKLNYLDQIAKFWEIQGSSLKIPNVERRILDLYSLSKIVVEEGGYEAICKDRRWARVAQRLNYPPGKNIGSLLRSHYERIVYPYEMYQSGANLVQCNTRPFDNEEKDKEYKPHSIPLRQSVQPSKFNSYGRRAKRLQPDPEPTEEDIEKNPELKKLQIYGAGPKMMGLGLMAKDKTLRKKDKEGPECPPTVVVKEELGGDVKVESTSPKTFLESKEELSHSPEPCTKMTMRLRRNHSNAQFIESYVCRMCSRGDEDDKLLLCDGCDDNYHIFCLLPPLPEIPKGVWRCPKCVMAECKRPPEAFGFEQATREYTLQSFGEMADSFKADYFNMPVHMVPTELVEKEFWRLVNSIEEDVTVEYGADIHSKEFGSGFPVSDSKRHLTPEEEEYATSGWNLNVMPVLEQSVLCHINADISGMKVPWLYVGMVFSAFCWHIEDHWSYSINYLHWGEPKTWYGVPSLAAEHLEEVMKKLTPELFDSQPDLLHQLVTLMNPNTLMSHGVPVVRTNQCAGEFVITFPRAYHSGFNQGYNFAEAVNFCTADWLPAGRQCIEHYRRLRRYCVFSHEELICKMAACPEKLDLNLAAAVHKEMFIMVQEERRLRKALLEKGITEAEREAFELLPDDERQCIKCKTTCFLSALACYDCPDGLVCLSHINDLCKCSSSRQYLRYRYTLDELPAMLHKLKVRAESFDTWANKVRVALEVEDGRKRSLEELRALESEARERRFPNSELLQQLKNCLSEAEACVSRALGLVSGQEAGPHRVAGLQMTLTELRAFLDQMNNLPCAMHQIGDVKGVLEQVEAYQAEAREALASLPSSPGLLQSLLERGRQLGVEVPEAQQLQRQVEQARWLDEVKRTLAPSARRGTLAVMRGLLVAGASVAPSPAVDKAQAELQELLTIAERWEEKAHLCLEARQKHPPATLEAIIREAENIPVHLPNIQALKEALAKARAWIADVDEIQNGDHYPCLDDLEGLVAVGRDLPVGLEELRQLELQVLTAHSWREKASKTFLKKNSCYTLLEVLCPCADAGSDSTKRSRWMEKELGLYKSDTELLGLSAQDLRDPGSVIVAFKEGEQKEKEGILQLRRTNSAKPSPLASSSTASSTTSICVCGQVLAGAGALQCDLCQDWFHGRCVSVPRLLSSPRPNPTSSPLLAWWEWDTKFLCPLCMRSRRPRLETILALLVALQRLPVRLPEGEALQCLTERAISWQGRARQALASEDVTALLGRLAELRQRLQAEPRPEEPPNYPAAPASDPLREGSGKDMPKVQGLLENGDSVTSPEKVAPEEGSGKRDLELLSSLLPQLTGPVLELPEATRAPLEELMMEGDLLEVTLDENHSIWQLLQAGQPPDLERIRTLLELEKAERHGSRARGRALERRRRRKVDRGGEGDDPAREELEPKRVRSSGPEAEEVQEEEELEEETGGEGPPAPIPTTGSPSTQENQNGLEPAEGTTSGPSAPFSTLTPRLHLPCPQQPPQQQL

[5] = target: Lysine-specific demethylase 4A (Homo sapiens) (UniProt O75164); experiment: Inhibition of recombinant KDM4A (unknown origin) assessed as residual activity using H3K9me3 peptide as substrate incubated for 60 mins by fluorescence based assay relative to control
Lysine-specific demethylase 4A (Homo sapiens), sequence (O75164 whole entry): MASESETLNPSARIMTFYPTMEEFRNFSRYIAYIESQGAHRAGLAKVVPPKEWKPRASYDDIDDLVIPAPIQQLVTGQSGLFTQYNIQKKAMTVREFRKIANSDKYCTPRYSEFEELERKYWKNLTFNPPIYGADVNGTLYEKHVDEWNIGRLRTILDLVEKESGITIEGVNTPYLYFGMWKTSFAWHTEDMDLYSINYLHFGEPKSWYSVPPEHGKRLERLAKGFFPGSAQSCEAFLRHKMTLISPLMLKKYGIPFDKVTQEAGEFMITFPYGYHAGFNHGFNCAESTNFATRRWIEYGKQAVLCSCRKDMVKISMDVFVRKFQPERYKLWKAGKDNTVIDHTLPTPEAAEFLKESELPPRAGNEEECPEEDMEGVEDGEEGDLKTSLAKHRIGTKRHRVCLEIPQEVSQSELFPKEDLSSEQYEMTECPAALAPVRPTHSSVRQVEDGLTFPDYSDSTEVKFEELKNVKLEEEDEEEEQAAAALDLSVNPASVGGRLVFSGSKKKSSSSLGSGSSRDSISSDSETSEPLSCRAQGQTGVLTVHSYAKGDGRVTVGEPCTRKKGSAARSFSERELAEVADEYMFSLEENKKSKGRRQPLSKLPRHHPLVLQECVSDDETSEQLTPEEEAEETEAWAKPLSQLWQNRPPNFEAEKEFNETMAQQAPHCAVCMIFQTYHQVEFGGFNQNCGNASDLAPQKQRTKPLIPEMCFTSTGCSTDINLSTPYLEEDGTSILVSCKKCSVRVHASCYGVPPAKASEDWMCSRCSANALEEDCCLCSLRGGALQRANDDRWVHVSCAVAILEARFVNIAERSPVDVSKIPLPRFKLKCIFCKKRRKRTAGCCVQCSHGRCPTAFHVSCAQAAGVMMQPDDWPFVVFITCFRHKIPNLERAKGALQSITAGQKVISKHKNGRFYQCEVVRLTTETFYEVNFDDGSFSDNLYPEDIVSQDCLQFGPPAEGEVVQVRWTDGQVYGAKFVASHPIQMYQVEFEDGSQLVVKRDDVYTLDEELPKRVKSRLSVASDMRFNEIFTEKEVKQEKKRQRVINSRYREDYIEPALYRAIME

[6] = target: T1, Lysine-specific histone demethylase 1A (Homo sapiens, UniProt O60341)
[7] = target: T1, Lysine-specific histone demethylase 1A; experiment: Inhibition of KDM1A (unknown origin) by fluorescence based assay
[8] = target: T2, Amine oxidase [flavin-containing] B (Homo sapiens, UniProt P27338)
T2 sequence (P27338 whole entry): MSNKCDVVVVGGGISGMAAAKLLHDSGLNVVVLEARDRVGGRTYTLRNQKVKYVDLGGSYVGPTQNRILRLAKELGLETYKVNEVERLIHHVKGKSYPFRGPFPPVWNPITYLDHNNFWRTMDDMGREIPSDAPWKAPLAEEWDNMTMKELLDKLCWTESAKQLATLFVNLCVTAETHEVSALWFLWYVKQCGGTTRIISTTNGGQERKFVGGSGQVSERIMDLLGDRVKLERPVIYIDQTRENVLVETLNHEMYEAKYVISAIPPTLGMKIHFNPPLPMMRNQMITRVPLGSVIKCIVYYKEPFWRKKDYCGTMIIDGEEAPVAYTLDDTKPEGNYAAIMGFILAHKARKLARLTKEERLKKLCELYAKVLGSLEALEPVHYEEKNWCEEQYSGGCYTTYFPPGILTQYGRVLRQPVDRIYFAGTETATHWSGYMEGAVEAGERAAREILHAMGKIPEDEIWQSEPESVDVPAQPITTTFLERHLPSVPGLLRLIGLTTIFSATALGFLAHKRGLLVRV

[9] = target: T1, Lysine-specific histone demethylase 1A; experiment: Inhibition of recombinant human KDM1A using fluorogenic substrate incubated for 30 mins followed by substrate addition measured after 10 mins by fluorescence based assay
[10] = target: T3, MAO-A (Homo sapiens, UniProt P21397); experiment: Inhibition of MAO-A (unknown origin) at 100 uM relative to control
T3 sequence (P21397 whole entry): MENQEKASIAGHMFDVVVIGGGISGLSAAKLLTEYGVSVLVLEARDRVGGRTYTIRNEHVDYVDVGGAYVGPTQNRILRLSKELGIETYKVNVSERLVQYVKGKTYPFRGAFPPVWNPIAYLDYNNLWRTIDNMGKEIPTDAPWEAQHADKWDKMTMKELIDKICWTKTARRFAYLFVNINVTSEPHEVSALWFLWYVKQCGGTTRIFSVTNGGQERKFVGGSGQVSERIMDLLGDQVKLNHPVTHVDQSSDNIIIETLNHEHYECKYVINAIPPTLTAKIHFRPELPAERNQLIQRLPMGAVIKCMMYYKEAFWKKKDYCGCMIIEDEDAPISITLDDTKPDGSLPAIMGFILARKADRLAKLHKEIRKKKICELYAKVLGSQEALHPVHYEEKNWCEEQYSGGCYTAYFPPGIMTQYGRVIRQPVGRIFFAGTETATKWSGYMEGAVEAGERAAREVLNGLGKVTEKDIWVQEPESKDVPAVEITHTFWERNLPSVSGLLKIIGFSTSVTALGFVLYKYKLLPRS

[11] = target: T4, MAO-B (Homo sapiens, UniProt P27338); experiment: Inhibition of MAO-B (unknown origin) at 100 uM relative to control
T4 sequence (P27338 whole entry): T2 sequence (P27338 whole entry)

[12] = target: T3, MAO-A; experiment: Inhibition of recombinant MAO-A (unknown origin) using luciferin substrate at 10 uM preincubated for 15 mins followed by substrate addition measured after 1 hr by luciferase based assay relative to control; settings: probe luciferin substrate, time 75 min
[13] = target: T4, MAO-B; experiment: Inhibition of recombinant MAO-B (unknown origin) using luciferin substrate at 10 uM preincubated for 15 mins followed by substrate addition measured after 1 hr by luciferase based assay relative to control; settings: probe luciferin substrate, time 75 min

In the case of `O=C(O)[C@H](O)Cc1ccc(O)c(O)c1`, the Ki [1] is reported as 7.11 µM.

In the case of `CC(=O)Nc1ccc(S(=O)(=O)N[C@H]2CO[C@H]3[C@@H]2OC[C@@H]3Nc2nccc(-c3cccc(F)c3)n2)cc1`, the Kd [2] is reported as 26.7 µM and the Kd [3] is reported as 16.3 µM.

With `COC(=O)c1ccnc(-c2cn(CCN(C)CCCCCCCCCCOc3cccc4c3C(=O)N(C3CCC(=O)NC3=O)C4=O)nn2)c1` (stereo unspecified) the inhibition [4] was 14%.

Compound `CC(C)(C)OC(=O)NCc1cc2ccccc2[te]1` has an Activity [5] of 1.79%.

`CCCC(=O)NC(c1ccc(N(CC)CC)cc1)c1cc(Cl)c2cccnc2c1O` (stereo unspecified) showed an IC50 [6] of 0.0039 µM.

Compound `O=C(/C=C/c1ccc(O)c2c1[C@H](C(=O)OC(Cc1ccc(O)c(O)c1)C(=O)O)[C@@H](c1ccc(O)c(O)c1)O2)O[C@H](Cc1ccc(O)c(O)c1)C(=O)O` (stereo partly specified) has an IC50 [7] of 0.11 µM.

Compound `O=C(c1ccc(OCCN2CCCCC2)cc1)c1c(-c2ccc(O)cc2)sc2cc(O)ccc12` [RALOXIFENE] has an IC50 [8] of over 200 µM.

For `Cn1c(C(=O)Nc2cccc3c2N(Cc2ccc(OC4CCNCC4)cc2)CCC3)cc2ccccc21`, the IC50 [9] was 0.05 µM.

In the case of `CCOC(=O)C(c1cc(OC)c(OC)cc1O)N1CCOCC1` (stereo unspecified), the IC50 [6] is reported as 0.296 µM.

`COc1cc2c(cc1OC)-c1c(C)c3ccc(OC)c(OC)c3c[n+]1CC2` [DEHYDROCORYDALINE] showed an IC50 [7] of 2.44 µM.

`NC1CC1c1ccc(NC(=O)c2ccc(-c3ccccc3)cc2)cc1` (stereo unspecified) was tested, and the inhibition at 100 µM [10] was 2%, the inhibition at 100 µM [11] was 8% and the IC50 [6] was 0.051 µM.

In the case of `Oc1ccc(CC2NCCc3cc(O)c(O)cc32)cc1` (stereo unspecified) [HIGENAMINE], the inhibition at 1 h, 10 µM [12] is reported as under 15% and the inhibition at 1 h, 10 µM [13] is reported as under 15%.
